Laboratory results as given in patent US20240201169A1, “METHODS OF THREE-DIMENSIONAL TUMOR SPHEROID MICROARRAY FOR HIGH-THROUGHPUT, HIGH-CONTENT IMMUNE CELL-MEDIATED CYTOTOXICITY” (RENSSELAER POLYTECHNIC INSTITUTE, priority 2021, published 2024).

Legend:
MDA-MB-231 spheroids = assay: 3D tumor spheroid 330-micropillar/microwell cytotoxicity (NK ADCC/drug combination, paclitaxel dose response); type: cell-based; conditions: for target cell cytotoxicity of combination: combination of NK92-CD16 at E:T 10:1, Trastuzumab and drug (3.5 nM doxorubicin, p<0.01; 7.0 nM paclitaxel, p<0.05)
Procedure: (§1) High-content imaging of 3D tumor spheroid micropillar array for effector cell-mediated cytotoxicity including NK ADCC/drug combination. Uniform-sized 3D spheroids in the 330-micropillar array were used to perform high-throughput ADCC on three different cancer cell lines; MiaPaCa-2, MCF7 and MDA-MB-231, the latter a triple negative breast cancer cell line, in the presence and absence of two chemotherapeutic drugs, doxorubicin and paclitaxel. The ADCC screen was performed by spotting 250 nL onto polydopamine-coated micropillars including 2500 target cancer cells per spot. The cells were cultured for 3 days and then treated with NK92-CD16 cells. […] As a control, one block of spots was reserved for exposure of target cells with both antibody and the drugs but without NK92-CD16 cells. The micropillar/microwell sandwich platform was incubated for 24 h upside-down to allow for target cell killing on culture day 3. The next day, the chips were then washed, stained with Hoechst 33342, Calcein-AM and Propidium Iodide, and imaged using the ASFA™ scanner.
(§2) There was interest in whether MDA-MB-231, which is a triple negative breast cancer cell line having reduced expression of estrogen receptor (ER), progesterone receptor and HER252, was susceptible to cell death upon combination exposure of paclitaxel, Atezolizumab and NK92-CD16 cells. Triple negative breast cancers are particularly aggressive to treat due to very low expression levels of ER, PR and HER253. To test this, the three target cancer cell lines were spotted onto the 330-micropillar platform to generate the corresponding 3D spheroids. […] The 3D spheroids on the micropillar chip were incubated for 24 h, and then stained and imaged.
3D experiments on 330-micropillar/microwell sandwich system. Polystyrene 330 micropillar chips (MBD Korea Co., South Korea) were coated with polydopamine, washed and dried until further use. The 330 well chips were UV-treated using a 96 W transilluminator (Syngene GVM-30) for 4 h to enhance surface hydrophilicity. Cancer cells were detached as described previously and mixed with high concentration growth factor-reduced Matrigel to obtain a final cell concentration of 1×10^7 cells/mL. Then, 250 nL of the Matrigel-cell mixture was spotted using the ASFA™ spotter onto the polydopamine coated 330 micropillar chips. The chips were incubated face down in a humidity chamber at 37° C. for 15 min to allow for gelation and then they were sandwiched with the corresponding 330 microwell chip including 3.6 μL of fresh medium per well. The chips were cultured for a period of 3 days prior to NK cell exposure. The cell growth medium on the chip was exchanged every 2 days. For cytotoxicity experiments, where the NK92-CD16 ratio was varied, 25 different conditions were tested (see Table 1 below), including a dead control (via addition of saponin).
(§3) Similarly, for the dose response experiments with paclitaxel, where the E:T ratio was fixed at 5:1, 25 different conditions including a dead cell control were evaluated, as shown in Table 2.
Unconjugated anti-HER2 antibody was used for experiments on 330 micropillar/microwell chips. […] The micropillar chip with target cells was then stamped onto the 330 microwell chip and incubated upside down for 24 h. […] The chips were subsequently washed in DPBS and imaged using an ASFA™ Cell Scanner (MBD Korea Co., South Korea) and quantitatively analyzed using cell analyzer software within the imaging system. […]

MCF7 spheroids = type: cell-based; conditions: for target cell cytotoxicity of combination: combination of NK92-CD16 at E:T 10:1, Trastuzumab and drug (3.5 nM doxorubicin, p<0.01; 7.0 nM paclitaxel, p<0.05)
Procedure: as §1, §2
3D experiments on 330-micropillar/microwell sandwich system. Polystyrene 330 micropillar chips (MBD Korea Co., South Korea) were coated with polydopamine, washed and dried until further use. The 330 well chips were UV-treated using a 96 W transilluminator (Syngene GVM-30) for 4 h to enhance surface hydrophilicity. Cancer cells were detached as described previously and mixed with high concentration growth factor-reduced Matrigel to obtain a final cell concentration of 1×10^7 cells/mL. Then, 250 nL of the Matrigel-cell mixture was spotted using the ASFA™ spotter onto the polydopamine coated 330 micropillar chips. […]
as §3
(§4) Unconjugated anti-HER2 antibody was used for experiments on 330 micropillar/microwell chips. […] The chips were subsequently washed in DPBS and imaged using an ASFA™ Cell Scanner (MBD Korea Co., South Korea) and quantitatively analyzed using cell analyzer software within the imaging system. […]

[1] = tested on: three target cancer cell lines (3D spheroids); assay: cells; conditions: 24 h, read-out: EC50 (paclitaxel-induced cytotoxicity)
Excerpt: as §2
3D experiments on 330-micropillar/microwell sandwich system. Polystyrene 330 micropillar chips (MBD Korea Co., South Korea) were coated with polydopamine, washed and dried until further use. […]
as §3, §4

MiaPaCa-2 spheroids = conditions: antibody 2.5 μg/mL with NK92-CD16 (5:1) and paclitaxel dose range, 24 h
Procedure: as §1, with “The next day, the chips were then washed, stained with Hoechst 33342, Calcein-AM and Propidium Iodide, and imaged using the ASFA™ scanner.” left out
as §3, §4

[2] = paclitaxel alone, spheroid culture

Compound	target cell cytotoxicity of combination (MDA-MB-231 spheroids; 24 h)	target cell cytotoxicity of combination (MCF7 spheroids; 24 h)	EC50 [1] [µM]	effectiveness as a cytotoxic agent (MDA-MB-231 spheroids; [2])	fold lower EC50 value for paclitaxel (MDA-MB-231 spheroids; paclitaxel in the presence of Atezolizumab 2.5 μg/mL along with NK92-CD16 (5:1), 24 h)	cytotoxic effectiveness of condition (MDA-MB-231 spheroids; paclitaxel in the presence of both Trastuzumab 2.5 μg/mL and NK92-CD16 (5:1), 24 h)	effectiveness as a cytotoxic agent (MCF7 spheroids; [2])	fold lower EC50 value for paclitaxel (MCF7 spheroids; paclitaxel with Trastuzumab 2.5 μg/mL and NK92-CD16 (5:1) vs absence of antibody and effector cells, 24 h)	inducing cytotoxicity (MiaPaCa-2 spheroids)
COc1cccc2c1C(=O)c1c(O)c3c(c(O)c1C2=O)C[C@@](O)(C(=O)CO)C[C@@H]3O[C@H]1C[C@H](N)[C@H](O)[C@H](C)O1 [doxorubicin]	significantly more effective	significantly more effective	–	–	–	–	–	–	–
CC(=O)O[C@H]1C(=O)[C@@]2(C)[C@H]([C@H](OC(=O)c3ccccc3)[C@]3(O)C[C@H](OC(=O)[C@H](O)[C@@H](NC(=O)c4ccccc4)c4ccccc4)C(C)=C1C3(C)C)[C@]1(OC(C)=O)CO[C@@H]1C[C@@H]2O [paclitaxel]	significantly more effective	significantly more effective	> 500	poorly effective	approximately 43 fold	did not prove to be effective	poorly effective	approximately 1.8 fold	–
Atezolizumab	–	–	–	–	–	–	–	–	effective in inducing cytotoxicity
